Laboratory results taken from US20250195521A1 (Revolution Medicines, Inc., priority 2020, published 2025).
Where two headings read alike, the source gives them in different places.

Experiments:
[1] = test system: AsPC-1 (K-Ras G12D); test: Potency assay: pERK; format: cell-based, human; details: Homo sapiens, ASPC1, read-out: pERK EC50
Method in brief: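 pERK decrease measured after 4 h compound treatment at 37 °C (10 three-fold dilutions, duplicate wells), by either fixed-cell In-Cell Western with DRAQ5 counterstain or AlphaLISA on lysates. Signal fitted against log concentration with a four-parameter model to give IC50.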

[2] = test system: AsPC-1 (K-Ras G12D); test: CellTiter-Glo cell viability assay, AsPC-1; format: cell-based, human; details: Homo sapiens, ASPC1, 120 h, read-out: AsPC-1 Cell Viability IC50
Method in brief: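 Luminescent viability readout on day 5 after direct compound addition to plated cells; plates sat ~30 min at room temperature before reading. Values expressed as percent of mean DMSO signal, curves fit with a four-parameter logistic model.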

[3] = biological target: KRAS G13D (Homo sapiens (Human), UniProt P01116+P62937, G13D); test: Ras-Raf disruption/FRET/MOA assay, KRAS G13D; format: biochemical
Chain of KRAS G13D (P01116 other isoform, or with tags, fused parts or gaps G13D): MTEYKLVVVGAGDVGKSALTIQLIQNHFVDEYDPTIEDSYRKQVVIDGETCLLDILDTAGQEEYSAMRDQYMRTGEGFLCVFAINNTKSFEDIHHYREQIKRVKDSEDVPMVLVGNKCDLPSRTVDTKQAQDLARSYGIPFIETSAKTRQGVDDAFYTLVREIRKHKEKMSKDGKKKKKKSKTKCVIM
Chain of KRAS G13D (P62937 whole entry, the tested form may be a part): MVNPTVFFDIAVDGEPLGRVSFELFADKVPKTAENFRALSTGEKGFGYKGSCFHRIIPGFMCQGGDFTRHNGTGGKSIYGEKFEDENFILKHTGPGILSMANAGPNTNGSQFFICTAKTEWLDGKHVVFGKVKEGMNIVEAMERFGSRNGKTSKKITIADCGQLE
Text: (§1) Disruption of B-Raf Ras-Binding Domain (BRAF^RBD) Interaction with K-Ras by Compounds of the Invention (Also Called a FRET Assay or an MOA Assay)
(§2) Note—The following protocol describes a procedure for monitoring disruption of K-Ras G12C (GMP-PNP) binding to BRAF^RBD by a compound of the invention. This protocol may also be executed substituting other Ras proteins or nucleotides, such as K-Ras G12D and K-Ras G13D.
(§3) The purpose of this biochemical assay was to measure the ability of test compounds to facilitate ternary complex formation between a nucleotide-loaded K-Ras isoform and Cyclophilin A; the resulting ternary complex disrupts binding to a BRAF^RBD construct, inhibiting K-Ras signaling through a RAF effector. Data is reported as IC50 values.
(§4) In assay buffer containing 25 mM HEPES pH 7.3, 0.002% Tween20, 0.1% BSA, 100 mM NaCl and 5 mM MgCl2, tagless Cyclophilin A, His6-K-Ras-GMPPNP, and GST-BRAF^RBD were combined in a 384-well assay plate at final concentrations of 25 μM, 12.5 nM, and 50 nM, respectively. Compound was present in plate wells as a 10-point 3-fold dilution series starting at a final concentration of 30 μM. After incubation at 25° C. for 3 hours, a mixture of anti-His Eu—W1024 and anti-GST allophycocyanin was then added to assay sample wells at final concentrations of 10 nM and 50 nM, respectively, and the reaction incubated for an additional 1.5 hours. […] Compounds that facilitate disruption of a K-Ras: RAF complex were identified as those eliciting a decrease in the TR-FRET ratio relative to DMSO control wells.

[4] = biological target: KRAS G12S (Homo sapiens (Human), UniProt P01116+P62937, G12S); test: Ras-Raf disruption/FRET/MOA assay, KRAS G12S; format: biochemical
Chain of KRAS G12S (P01116 other isoform, or with tags, fused parts or gaps G12S): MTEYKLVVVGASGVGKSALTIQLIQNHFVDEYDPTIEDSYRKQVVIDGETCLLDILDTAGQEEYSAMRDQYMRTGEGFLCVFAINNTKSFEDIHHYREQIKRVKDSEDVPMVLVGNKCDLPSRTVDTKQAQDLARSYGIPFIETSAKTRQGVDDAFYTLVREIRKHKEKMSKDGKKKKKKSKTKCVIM
Chain of KRAS G12S (P62937 whole entry): as the sequence (P62937 whole entry, the tested form may be a part) above
Text: as §1, §2, §3, §4

[5] = biological target: KRAS G13C (Homo sapiens (Human), UniProt P01116+P62937, G13C); test: Ras-Raf disruption/FRET/MOA assay, KRAS G13C; format: biochemical
Chain of KRAS G13C (P01116 other isoform, or with tags, fused parts or gaps G13C): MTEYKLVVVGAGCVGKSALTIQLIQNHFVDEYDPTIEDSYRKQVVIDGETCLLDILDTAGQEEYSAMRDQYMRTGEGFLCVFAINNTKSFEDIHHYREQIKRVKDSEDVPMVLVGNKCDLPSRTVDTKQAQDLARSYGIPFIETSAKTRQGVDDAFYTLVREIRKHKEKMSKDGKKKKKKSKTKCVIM
Chain of KRAS G13C (P62937 whole entry): as the sequence (P62937 whole entry, the tested form may be a part) above
Text: as §1, §2, §3, §4

[6] = biological target: KRAS G12V (Homo sapiens (Human), UniProt P01116+P62937, G12V); test: Ras-Raf disruption/FRET/MOA assay, KRAS G12V; format: biochemical
Chain of KRAS G12V (P01116 other isoform, or with tags, fused parts or gaps G12V): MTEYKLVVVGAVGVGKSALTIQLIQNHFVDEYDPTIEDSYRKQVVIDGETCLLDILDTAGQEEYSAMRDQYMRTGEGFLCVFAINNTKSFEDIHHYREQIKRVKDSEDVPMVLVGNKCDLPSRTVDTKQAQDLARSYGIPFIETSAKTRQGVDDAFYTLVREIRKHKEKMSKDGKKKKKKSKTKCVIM
Chain of KRAS G12V (P62937 whole entry): as the sequence (P62937 whole entry, the tested form may be a part) above
Text: as §1, §2, §3, §4

[7] = biological target: KRAS G12D (Homo sapiens (Human), UniProt P01116+P62937, G12D); test: Ras-Raf disruption/FRET/MOA assay, KRAS G12D; format: biochemical
Chain of KRAS G12D (P01116 other isoform, or with tags, fused parts or gaps G12D): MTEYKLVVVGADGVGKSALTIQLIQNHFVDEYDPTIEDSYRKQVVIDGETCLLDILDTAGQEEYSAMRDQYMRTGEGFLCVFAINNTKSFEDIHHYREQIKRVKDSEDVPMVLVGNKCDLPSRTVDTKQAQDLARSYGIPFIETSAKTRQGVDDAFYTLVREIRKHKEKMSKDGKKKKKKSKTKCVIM
Chain of KRAS G12D (P62937 whole entry): as the sequence (P62937 whole entry, the tested form may be a part) above
Text: as §1, §2, §3, §4

[8] = biological target: KRAS WT (Homo sapiens (Human), UniProt P01116+P62937); test: Ras-Raf disruption/FRET/MOA assay, KRAS WT; format: biochemical
Chain of KRAS WT (P01116 other isoform, or with tags, fused parts or gaps): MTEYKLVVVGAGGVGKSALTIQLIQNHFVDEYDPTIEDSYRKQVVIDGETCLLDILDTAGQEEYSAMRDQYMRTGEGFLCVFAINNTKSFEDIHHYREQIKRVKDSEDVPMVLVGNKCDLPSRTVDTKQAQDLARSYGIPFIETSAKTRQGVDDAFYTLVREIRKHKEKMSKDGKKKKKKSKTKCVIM
Chain of KRAS WT (P62937 whole entry): as the sequence (P62937 whole entry, the tested form may be a part) above
Text: as §1, §2, §3, §4

[9] = biological target: KRAS G12C (Homo sapiens (Human), UniProt P01116+P62937, G12C); test: Ras-Raf disruption/FRET/MOA assay, KRAS G12C; format: biochemical
Chain of KRAS G12C (P01116-2 other isoform, or with tags, fused parts or gaps G12C): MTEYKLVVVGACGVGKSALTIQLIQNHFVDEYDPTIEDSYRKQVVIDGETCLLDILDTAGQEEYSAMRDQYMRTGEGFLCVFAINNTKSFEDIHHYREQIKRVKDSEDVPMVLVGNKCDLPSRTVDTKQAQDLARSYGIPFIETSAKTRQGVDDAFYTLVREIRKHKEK
Chain of KRAS G12C (P62937 whole entry): as the sequence (P62937 whole entry, the tested form may be a part) above
Text: as §1, §2, §3, §4

[10] = biological target: NRAS G12C (Homo sapiens (Human), UniProt P01111+P62937, G12C); test: Ras-Raf disruption/FRET/MOA assay, NRAS G12C; format: biochemical
Chain of NRAS G12C (P01111 whole entry G12C): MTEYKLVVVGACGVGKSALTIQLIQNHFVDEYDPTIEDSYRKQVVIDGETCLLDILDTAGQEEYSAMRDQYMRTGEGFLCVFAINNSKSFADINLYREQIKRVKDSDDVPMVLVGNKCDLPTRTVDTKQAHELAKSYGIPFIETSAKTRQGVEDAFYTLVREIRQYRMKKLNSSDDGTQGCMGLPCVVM
Chain of NRAS G12C (P62937 whole entry): as the sequence (P62937 whole entry, the tested form may be a part) above
Text: as §1, §2, §3, §4

[11] = read-out: KRAS G12C FRET data IC50
[12] = read-out: NRAS G12C FRET data IC50

CCn1c(-c2cnccc2COC)c2c3cc(ccc31)-c1cc(O)cc(c1)C[C@H](NC(=O)[C@H](C(C)C)N(C)C(=O)CN(C)C(=O)[C@H]1N[C@@H]1c1ccc(OC)cc1)C(=O)N1CCC[C@H](N1)C(=O)OCC(C)(C)C2 [Example 97] was tested, and the EC50 [1] was under 5000 nM, the IC50 [2] was 1000 to 10000 nM and the IC50 [3] was 100 to 1000 nM. For the same molecule, the IC50 [4] was 10 to 100 nM, the IC50 [5] was 10 to 100 nM and the IC50 [6] was 10 to 100 nM. The IC50 [7] was 100 to 1000 nM, the IC50 [8] was 10 to 100 nM and the IC50 [9] was 10 to 100 nM. The IC50 [10] was 10 to 100 nM.

With CCn1c(-c2cnccc2COC)c2c3cc(ccc31)-c1cc(O)cc(c1)C[C@H](NC(=O)[C@H](C(C)C)N(C)C(=O)CN1C(=O)[C@H]3N[C@H]3C1=O)C(=O)N1CCC[C@H](N1)C(=O)OCC(C)(C)C2 [Example 98] the IC50 ([3]; read-out: KRAS G13D FRET IC50) was 1000 to 10000 nM, the IC50 ([4]; read-out: KRAS G12S FRET IC50) was 1000 to 10000 nM and the IC50 ([5]; read-out: KRAS G13C FRET IC50) was 100 to 1000 nM. It also gave an IC50 ([6]; read-out: KRAS G12V FRET IC50) of 1000 to 10000 nM, an IC50 ([7]; read-out: KRAS G12D FRET IC50) of 1000 to 10000 nM and an IC50 ([8]; read-out: KRAS WT FRET IC50) of 100 to 1000 nM. It also gave an IC50 [9, 11] of 100 to 1000 nM and an IC50 [10, 12] of 1000 to 10000 nM.

In the case of CCn1c(-c2cnccc2COC)c2c3cc(ccc31)-c1cc(O)cc(c1)C[C@H](NC(=O)[C@@H](CN(C)C(=O)[C@H]1CN1)C(C)C)C(=O)N1CCC[C@H](N1)C(=O)OCC(C)(C)C2 [Example 99], the IC50 ([3]; read-out: KRAS G13D FRET IC50) is reported as over 10000 nM, the IC50 ([4]; read-out: KRAS G12S FRET IC50) is reported as over 10000 nM and the IC50 ([5]; read-out: KRAS G13C FRET IC50) is reported as over 10000 nM. It also gave an IC50 ([6]; read-out: KRAS G12V FRET IC50) of 1000 to 10000 nM, an IC50 ([7]; read-out: KRAS G12D FRET IC50) of over 10000 nM and an IC50 ([8]; read-out: KRAS WT FRET IC50) of over 10000 nM. The IC50 [9, 11] was 1000 to 10000 nM and the IC50 [10, 12] was over 10000 nM.

In the case of CCn1c(-c2cnccc2COC)c2c3cc(ccc31)-c1cc(O)cc(c1)C[C@H](NC(=O)[C@H](C(C)C)N(C)C(=O)CN(C)C(=O)[C@H]1N[C@H]1C1CC1)C(=O)N1CCC[C@H](N1)C(=O)OCC(C)(C)C2 [Example 104], the EC50 [1] is reported as under 5000 nM, the IC50 [2] is reported as 1000 to 10000 nM and the IC50 [3] is reported as 100 to 1000 nM. It also gave an IC50 [4] of 10 to 100 nM, an IC50 [5] of 10 to 100 nM and an IC50 [6] of 100 to 1000 nM. The IC50 [7] was 100 to 1000 nM, the IC50 [8] was 100 to 1000 nM and the IC50 [9] was 10 to 100 nM. For the same molecule, the IC50 [10] was 10 to 100 nM.

In the case of CCn1c(-c2cnccc2COC)c2c3cc(ccc31)-c1cc(O)cc(c1)C[C@H](NC(=O)[C@H](C(C)C)N(C)C(=O)CN(C)C(=O)[C@@H]1N[C@@H]1C)C(=O)N1CCC[C@H](N1)C(=O)OCC(C)(C)C2 [Example 105], the EC50 [1] is reported as under 5000 nM, the IC50 [2] is reported as 1000 to 10000 nM and the IC50 [3] is reported as 100 to 1000 nM. For the same molecule, the IC50 [4] was 10 to 100 nM, the IC50 [5] was 10 to 100 nM and the IC50 [6] was 100 to 1000 nM. It also gave an IC50 [7] of 100 to 1000 nM, an IC50 [8] of 10 to 100 nM and an IC50 [9] of 10 to 100 nM. It also gave an IC50 [10] of 10 to 100 nM.

CCn1c(-c2cccnc2[C@H](C)OC)c2c3cc(ccc31)-c1cc(O)cc(c1)C[C@H](NC(=O)[C@H](C(C)C)N1CCC3(CC(C(=O)[C@H]4CN4)C3)C1=O)C(=O)N1CCC[C@H](N1)C(=O)OCC(C)(C)C2 (some centres unmarked) [Example 115] gave an IC50 ([2]; K-Ras G12D, 5-day treatment) of over 10000 nM, an IC50 ([3]; read-out: KRAS G13D FRET IC50) of 10 to 100 nM and an IC50 ([4]; read-out: KRAS G12S FRET IC50) of 100 to 1000 nM. It also gave an IC50 ([5]; read-out: KRAS G13C FRET IC50) of 10 to 100 nM, an IC50 ([6]; read-out: KRAS G12V FRET IC50) of 100 to 1000 nM and an IC50 ([7]; read-out: KRAS G12D FRET IC50) of 100 to 1000 nM. For the same molecule, the IC50 ([8]; read-out: KRAS WT FRET IC50) was 10 to 100 nM, the IC50 [9, 11] was under 10 nM and the IC50 [10, 12] was under 10 nM.

In the case of CCn1c(-c2cnccc2COC)c2c3cc(ccc31)-c1cc(O)cc(c1)C[C@H](NC(=O)[C@H](C(C)C)N(C)C(=O)CCNC1=NCCO1)C(=O)N1CCC[C@H](N1)C(=O)OCC(C)(C)C2 [Example 120], the IC50 ([3]; read-out: KRAS G13D FRET IC50) is reported as 10 to 100 nM, the IC50 ([4]; read-out: KRAS G12S FRET IC50) is reported as 100 to 1000 nM and the IC50 ([5]; read-out: KRAS G13C FRET IC50) is reported as 10 to 100 nM. The IC50 ([6]; read-out: KRAS G12V FRET IC50) was 100 to 1000 nM, the IC50 ([7]; read-out: KRAS G12D FRET IC50) was 100 to 1000 nM and the IC50 ([8]; read-out: KRAS WT FRET IC50) was 10 to 100 nM. For the same molecule, the IC50 [9, 11] was 100 to 1000 nM and the IC50 [10, 12] was 100 to 1000 nM.

Work on CCn1c(-c2cccnc2[C@H](C)OC)c2c3cc(ccc31)-c1cccc(c1)C[C@H](NC(=O)[C@H](C(C)C)N1CC[C@@H](CN=C=NCCOC)C1)C(=O)N1CCC[C@H](N1)C(=O)OCC(C)(C)C2 [Example 121] yielded an IC50 ([3]; read-out: KRAS G13D FRET IC50) of over 10000 nM, an IC50 ([4]; read-out: KRAS G12S FRET IC50) of 1000 to 10000 nM and an IC50 ([5]; read-out: KRAS G13C FRET IC50) of 100 to 1000 nM. It also gave an IC50 ([6]; read-out: KRAS G12V FRET IC50) of 1000 to 10000 nM, an IC50 ([7]; read-out: KRAS G12D FRET IC50) of 1000 to 10000 nM and an IC50 ([8]; read-out: KRAS WT FRET IC50) of 100 to 1000 nM. For the same molecule, the IC50 [9, 11] was 100 to 1000 nM and the IC50 [10, 12] was 100 to 1000 nM.
